Measured values from patent US20260028364A1, “CATIONIC CHROMENONES AND THEIR USE IN ONCOLOGY” (FLORATEK PHARMA S.A., priority 2022, published 2026).

How the values were obtained:
DMS-114 = assay: Caspase-Glo 3/7 apoptosis assay, DMS-114; format: cell-based; conditions: DMS-114 cells, 10 μM, 24 h
Procedure: Apoptosis activity was evaluated using Caspase-Glo 3/7 Assay kit (Promega-G8091) according to the manufacturer's instructions. Cells were grown as above and harvested from exponential phase cultures, counted and plated in 96 black well flat-bottom microtiter plates at a cell density depending on the cell line's growth rate (3,000-10,000 cells/well depending on the cell line's growth rate). Following an overnight incubation, compounds were added to the cell plates at various concentrations (highest at […]) with the DMSO concentration maintained at 0.1% for a 24 h period treatment. 100 μL of Caspase-Glo 3/7 Reagent was added to each well of 96-well plate containing 100 μL culture medium, and after 30 min at room temperature, luminescence was measured with the microplate luminometer (EnVision Perkin Elmer). The induced relative Caspase 3/7 activity of the tested compounds was determined by the following formula: Relative Caspase 3/7 activity (fold increase)=(RLU compound−RLU blank)/(RLU control−RLU blank).

[1] = test system: Toll-like Receptor (TLR4); assay: SelectScreen CellSensor pathway inhibition, Toll-like Receptor (TLR4); format: cell-based; conditions: Homo sapiens; NFkB-bla THP-1, stimulus LPS
Procedure: Inhibition of various cellular pathways known to be involved in malignancy was tested using the SelectScreen Cell-based Pathway Profiling GeneBLAzer™ cell signaling pathway specific CellSensor™ cell lines ((Thermo Fisher). The assay is based on a beta-lactamase reporter activity which is modulated and can be measured quantitatively and selectively with the LiveBLAzer™-FRET B/G Loading Substrate. SelectScreen Cell-Based Pathway Profiling Service uses XLfit from IDBS. The dose response curve is curve fit to model number 205 (sigmoidal dose-response model). Custom logic was built by Thermo Fisher for the data analysis tool to address the different compound characteristics that can be observed with functional assays.
Toll-like Receptor (TLR4)—NFKB-bla THP-1—Inhibitor Screen, Activated by LPS
NFKB-bla THP-1 cells are thawed and resuspended in Assay Media (RPMI, 0.5% dialyzed FBS, 0.1 mM NEAA, 1 mM Sodium Pyruvate, 100 U/mL/[…] Pen/Strep) to a concentration of 625,000 cells/mL. 32 μL of cell suspension is added to each well of a 384-well TC-Treated assay plate. Cells in Assay Media are incubated for 16-24 hours in the plate at 37° C./5% CO2 in a humidified incubator. […] The plate is read on a fluorescence plate reader.

For `COc1ccc2c(=O)c(-c3ccc(CCCC[P+](c4ccccc4)(c4ccccc4)c4ccccc4)cc3)coc2c1OC.[Br-]` [SND470, (4-(4-(7,8-Dimethoxy-4-oxo-4H-chromen-3-yl)phenyl)butyl)triphenylphosphonium bromide], the “Fold activation of Caspase 3/7” value (DMS-114) was 3.32 Fold and the IC50 [1] was 560 nM.
